Experimental data reported in PubChem BioAssay (NCI).
Where “and” joins values, the source holds several entries; their conditions need not be identical. Equal values may be shown once.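 A five-concentration, 48-hour dose response in 96-well plates underlies each endpoint, interpolated linearly between surrounding concentrations. GI50 marks 50% less growth. TGI: concentration producing complete growth inhibition.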

Legend:
Assay in all cases: inhibition of tumour cell growth, NCI panel, 48 h
OVCAR-5 ovarian = test system: OVCAR-5 ovarian
MCF7 breast = test system: MCF7 breast
TK-10 renal = test system: TK-10 renal
RXF 393 renal = test system: RXF 393 renal
U251 CNS = test system: U251 CNS
A549 NSCLC = test system: A549 NSCLC
CAKI-1 renal = test system: CAKI-1 renal
A498 renal = test system: A498 renal
SN12C renal = test system: SN12C renal
SK-MEL-28 melanoma = test system: SK-MEL-28 melanoma

SMILES	GI50 (OVCAR-5 ovarian)	TGI (OVCAR-5 ovarian)	GI50 (MCF7 breast)	TGI (MCF7 breast)	GI50 (TK-10 renal)	TGI (TK-10 renal)	GI50 (RXF 393 renal)	TGI (RXF 393 renal)	GI50 (U251 CNS)	TGI (U251 CNS)	GI50 (A549 NSCLC)	TGI (A549 NSCLC)	GI50 (CAKI-1 renal)	TGI (CAKI-1 renal)	GI50 (A498 renal)	TGI (A498 renal)	GI50 (SN12C renal)	TGI (SN12C renal)	GI50 (SK-MEL-28 melanoma)	TGI (SK-MEL-28 melanoma)
O=C1NC(=NCc2ccccc2Cl)S/C1=C\c1ccc2ncccc2c1	> 25 µM	> 25 µM	9.2 µM	> 25 µM	6.02 µM	> 25 µM	8.49 µM	> 25 µM	6.44 µM	> 25 µM	8.5 µM	> 25 µM	4.83 µM	> 19.5 µM	4.21 µM	> 21.5 µM	13.1 µM	> 25 µM	> 25 µM	> 25 µM
O=C(O)C1=C/C(=C(/c2ccccc2)c2cc(C(=O)O)c(O)c3ccccc23)c2ccccc2C1=O	–	> 100 µM	–	> 100 µM	–	> 100 µM	–	> 100 µM	–	> 100 µM	–	> 100 µM	–	> 100 µM	–	> 100 µM	–	> 100 µM	–	> 100 µM
COc1cc(/C=C2\C(=O)N(Cc3ccc(Cl)cc3)c3ccccc32)cc(OC)c1OC	3.38 µM	14.5 µM	2.97 µM	> 61.7 µM	3.09 µM	30.1 µM	2.35 µM	4.95 µM	1.75 µM	3.44 µM	4.27 µM	19.2 µM	2.92 µM	13.8 µM	1.54 µM	7.97 µM	2.59 µM	8.99 µM	1.53 µM	3.07 µM
O=C(Nc1ccc(Oc2ccc3nc(NC(=O)c4ccco4)[nH]c3c2)cc1)Nc1cc(C(F)(F)F)ccc1F	1.49 µM	8.63 µM	2.94 µM	15.6 µM	2.57 µM	12.8 µM	1.28 µM	5.13 µM	3.33 µM	> 15.3 µM	3.19 µM	11.8 µM	1.81 µM	> 14.4 µM	0.929 µM	5.4 µM	0.89 µM	10.9 µM	2.08 µM	7.04 µM
Cc1ccc(CNc2ccc(Br)cc2)cc1	–	> 100 µM	–	61 µM	–	> 100 µM	–	76.5 µM	–	> 100 µM	–	> 100 µM	–	> 100 µM	–	> 100 µM	–	> 100 µM	–	> 100 µM
O=C1NC(=S)S/C1=C\c1cn(-c2ccccc2)nc1-c1ccccc1	14.3 µM	29.6 µM	8.31 µM	94.1 µM	8 µM	85.2 µM	22.4 µM	65.2 µM	5.54 µM	21.2 µM	5.88 µM	> 100 µM	7.14 µM	51.8 µM	2.99 µM	18.2 µM	9.93 µM	> 100 µM	9.22 µM	> 100 µM
CN=C(N)c1ccc(N=C(N)c2ccc(-c3ccc(C(N)=Nc4ccc(C(N)=NC)cc4)cc3)cc2)cc1	> 100 µM	> 100 µM	19 µM	> 100 µM	35.9 µM	97.1 µM	39.4 µM	> 100 µM	55.5 µM	> 100 µM	> 100 µM	> 100 µM	> 100 µM	> 100 µM	> 100 µM	> 100 µM	> 100 µM	> 100 µM	41.8 µM	> 100 µM
CCOCC1(COCC)CCC(c2[nH]ncc2CN(C)CCNC)CC1	> 100 µM	> 100 µM	> 100 µM	> 100 µM	> 100 µM	> 100 µM	65.2 µM	> 100 µM	> 100 µM	> 100 µM	> 100 µM	> 100 µM	> 100 µM	> 100 µM	8.25 µM	> 100 µM	> 100 µM	> 100 µM	> 100 µM	> 100 µM
COc1cc2cc(Oc3ccc(NC(=O)Nc4cc(C(F)(F)F)cc(C(F)(F)F)c4)cc3)c(C)nc2cc1OCCN1CCOCC1	2.18 µM	7.97 µM	1.43 µM	3.91 µM	3.7 µM	12.5 µM	1.12 µM	2.99 µM	1.13 µM	2.85 µM	1.72 µM	7.23 µM	1.47 µM	5.68 µM	1.8 µM	6.69 µM	1.49 µM	5.48 µM	1.8 µM	6.94 µM
CC(C)(C)c1cc(C(=O)Nc2ccccc2C(=O)NCCN)cc(C(C)(C)C)c1	1.78 µM	3.81 µM	1.76 µM	3.54 µM	1.68 µM	3.12 µM	2.01 µM	3.58 µM	1.89 µM	3.42 µM	2.11 µM	4.2 µM	2.21 µM	5.56 µM	2.38 µM	6.44 µM	1.97 µM	3.97 µM	1.91 µM	3.64 µM
COc1cc2oc(-c3cccc(C(=O)Nc4ccc(Cl)cc4)c3)cc(=O)c2c(OC)c1OC	1.87 µM	> 100 µM	2.94 µM	> 100 µM	3.22 µM	> 100 µM	1.25 µM	5.09 µM	4.08 µM	> 100 µM	3.56 µM	> 100 µM	1.79 µM	7.84 µM	2 µM	7.82 µM	3.49 µM	> 100 µM	1.84 µM	5.89 µM
O=C1NC(=NCCc2ccc(F)cc2)S/C1=C\c1ccc2ncccc2c1	> 25 µM	> 25 µM	> 23.1 µM	> 25 µM	> 25 µM	> 25 µM	> 25 µM	> 25 µM	> 25 µM	> 25 µM	> 25 µM	> 25 µM	> 25 µM	> 25 µM	> 25 µM	> 25 µM	> 25 µM	> 25 µM	> 25 µM	> 25 µM
O=C(CS(=O)(=O)c1nc2ccccc2nc1-c1ccccc1)Nc1ccc(F)cc1	> 100 µM	> 100 µM	43.1 µM	> 100 µM	> 100 µM	> 100 µM	> 100 µM	> 100 µM	37.9 µM	> 100 µM	> 100 µM	> 100 µM	> 100 µM	> 100 µM	21.6 µM	> 100 µM	33.9 µM	> 100 µM	> 100 µM	> 100 µM
CCCn1c2c(c3ccccc3c1=O)C(=O)c1ccccc1-2	–	> 100 µM	–	> 100 µM	–	> 100 µM	–	> 100 µM	–	> 100 µM	–	> 100 µM	–	> 100 µM	–	> 100 µM	–	> 100 µM	–	> 100 µM
CCOC(=O)c1c(-c2ccccc2)[n+](=O)c2cc(Cl)c(Cl)cc2n1[O-]	22 µM	47.7 µM	2.03 µM	20.9 µM	1.57 µM	4.07 µM	6.59 µM	22.9 µM	2.33 µM	6.01 µM	15.5 µM	34.4 µM	1.64 µM	3.2 µM	18.4 µM	33.9 µM	3.03 µM	22.2 µM	13.7 µM	36.3 µM
O=C(Nc1ccc(Oc2ccc(F)cc2)cc1)[C@@H]1C[C@@H](Cc2ccc(F)cc2)CN1C(=O)Cn1ccnn1	4.52 µM	17.7 µM	3.74 µM	17.5 µM	8.74 µM	35.3 µM	2.85 µM	11.6 µM	4.79 µM	22.2 µM	5.21 µM	> 50.4 µM	11.5 µM	51.7 µM	8.49 µM	27.9 µM	5.73 µM	21.8 µM	6.72 µM	20.6 µM
O=C1CC(c2c[nH]c3ccc(F)cc23)C(=O)N1 (configuration not stated)	> 100 µM	> 100 µM	> 100 µM	> 100 µM	> 100 µM	> 100 µM	> 100 µM	> 100 µM	> 100 µM	> 100 µM	> 100 µM	> 100 µM	> 100 µM	> 100 µM	> 100 µM	> 100 µM	> 100 µM	> 100 µM	> 100 µM	> 100 µM
CC(=O)OCC1OC(n2c(=S)n(-c3ccc([N+](=O)[O-])cc3)c(=O)c3ccccc32)C(OC(C)=O)C(OC(C)=O)C1OC(C)=O (configuration not stated)	32.2 µM and > 100 µM	> 100 µM	–	52.6 µM	19.9 µM and 40.3 µM	65.2 µM and 75.1 µM	4.61 µM and 14.3 µM	17.1 µM and 29.6 µM	–	42 µM and 37.8 µM	23.1 µM and 32 µM	> 100 µM	25.3 µM and 35.9 µM	> 100 µM	21.9 µM	> 76.2 µM and 53.6 µM	–	70.1 µM and 44.4 µM	31 µM and 20.7 µM	> 82.5 µM and 59.7 µM
